Reference: ChEMBL document CHEMBL4311969, “Polygala tenuifolia-Acori tatarinowii herbal pair as an inspiration for substituted cinnamic α-asaronol esters: Design, synthesis, anticonvulsant activity, and inhibition of lactate dehydrogenase study” (Eur J Med Chem, 2019)
“And” between values parts separate entries of the source, which are not always exact repeats. Equal values may be shown once. The source made the active and inactive calls. The rule behind the calls is not given here.

Tests used:
Mus musculus [1] = assay: Anticonvulsant activity in Kunming mouse assessed as reduction in Sc3-MP-induced clonic seizure rate at 300 mg/kg, ip administered 0.5 hrs before Sc3-MP stimulation relative to control; format: functional; design: scale not given: the % may be the effect or the level left
Mus musculus [2] = assay: Anticonvulsant activity in Kunming mouse assessed as reduction in Sc3-MP-induced tonic seizure rate at 300 mg/kg, ip administered 0.5 hrs before Sc3-MP stimulation relative to control; format: functional; design: scale not given: the % may be the effect or the level left
Mus musculus [3] = assay: Anticonvulsant activity in Kunming mouse assessed as MES-induced hind limb extension at 100 mg/kg, ip administered 0. 5 to 2 hrs before MES stimulation; format: functional, organism-based
[4] = Neurotoxicity against Kunming mouse assessed as time remained in rod at 100 mg/kg, ip administered 0.5 to 2 hrs by rotarod test; format: toxicity, organism-based; conditions: in vivo
Mus musculus [5] = assay: Anticonvulsant activity in Kunming mouse assessed as MES-induced hind limb extension at 50 mg/kg, ip administered 0.5 to 4 hrs before MES stimulation relative to control; format: functional
Mus musculus [6] = assay: Anticonvulsant activity in Kunming mouse assessed as MES-induced hind limb extension at 50 mg/kg, ip administered 0.5 and 2 hrs before MES stimulation relative to control; format: functional
Mus musculus [7] = assay: Anticonvulsant activity in Kunming mouse assessed as reduction in ScPTZ-induced seizure at 300 mg/kg, ip administered 0.25 to 2 hrs before ScPTZ stimulation relative to control; format: functional; design: scale not given: the % may be the effect or the level left
Mus musculus [8] = assay: Anticonvulsant activity in Kunming mouse assessed as reduction in ScPTZ-induced seizure at 100 mg/kg, ip administered 0.25 to 2 hrs before ScPTZ stimulation relative to control; format: functional
Mus musculus [9] = assay: Anticonvulsant activity in Kunming mouse assessed as reduction in ScPTZ-induced seizure at 100 mg/kg, ip administered 0.25 and 1 hrs before ScPTZ stimulation relative to control; format: functional; design: scale not given: the % may be the effect or the level left
Mus musculus [10] = assay: Anticonvulsant activity in Kunming mouse assessed as reduction in ScPTZ-induced clonic seizure at 300 mg/kg, ip administered 0.5 hrs before ScPTZ stimulation relative to control; format: functional; design: scale not given: the % may be the effect or the level left
Mus musculus [11] = assay: Anticonvulsant activity in Kunming mouse assessed as reduction in ScPTZ-induced clonic seizure at 100 mg/kg, ip administered 0.5 hrs before ScPTZ stimulation relative to control; format: functional; design: scale not given: the % may be the effect or the level left
Mus musculus [12] = assay: Anticonvulsant activity in Kunming mouse assessed as reduction in ScPTZ-induced tonic seizure rate at 300 mg/kg, ip administered 0.5 hrs before ScPTZ stimulation relative to control; format: functional; design: scale not given: the % may be the effect or the level left
Mus musculus [13] = assay: Anticonvulsant activity in Kunming mouse assessed as reduction in ScPTZ-induced tonic seizure rate at 100 mg/kg, ip administered 0.5 hrs before ScPTZ stimulation relative to control; format: functional; design: scale not given: the % may be the effect or the level left
Mus musculus [14] = assay: Anticonvulsant activity in ip dosed Kunming mouse assessed as MES-induced hind limb extension administered 0.5 hrs before MES stimulation; format: functional
Mus musculus [15] = assay: Anticonvulsant activity in ip dosed Kunming mouse assessed as reduction in ScPTZ-induced seizure administered 0.5 hrs before ScPTZ stimulation; format: functional
Mus musculus [16] = assay: Anticonvulsant activity in Kunming mouse assessed as reduction in Sc3-MP-induced seizure ip dosed measured at 0.5 hrs before Sc3-MP stimulation; format: functional
Mus musculus [17] = assay: […] activity in ip dosed Kunming mouse assessed as reduction in formalin-induced paw licking administered 0.5 hrs before formalin stimulation; format: functional
[18] = Neurotoxicity against ip dosed Kunming mouse assessed as time remained in rod measured at 0.5 hrs by rotarod test; format: toxicity, organism-based; conditions: in vivo
[19] = Protective index, ratio of TD50 for neurotoxicity against ip dosed Kunming mouse assessed as time remained in rod measured at 0.5 hrs by rotarod test to ED50 for anticonvulsant activity in ip dosed Kunming mouse assessed as MES-induced hind limb extension administered 0.5 hrs; format: toxicity, organism-based; conditions: in vivo, read-out: PI
[20] = (§1) Protective index, ratio of TD50 for neurotoxicity against ip dosed Kunming mouse assessed as time remained in rod measured at 0.5 hrs by rotarod test to ED50 for anticonvulsant activity in ip dosed Kunming mouse assessed as reduction in ScPTZ-induced seizure administered 0.5 hrs before ScPTZ stimulation; format: toxicity, organism-based; conditions: in vivo, read-out: PI
[21] = as §1, with “Sc3-MP-induced” for “ScPTZ-induced”, “Sc3-MP” for “ScPTZ”; format: toxicity, organism-based; conditions: in vivo, read-out: PI
[22] = as §1, with “formalin-induced paw licking” for “ScPTZ-induced seizure”, “formalin” for “ScPTZ”; format: toxicity, organism-based; conditions: in vivo, read-out: PI
Homo sapiens [23] = species on record: Homo sapiens; assay: Inhibition of human LDH1 at 0.5 mM using sodium pyruvate as substrate by UV-VIS spectrophotometry method relative to control
Homo sapiens [24] = species on record: Homo sapiens; assay: Inhibition of human LDH5 at 0.5 mM using sodium pyruvate as substrate by UV-VIS spectrophotometry method relative to control
Mus musculus [25] = assay: Anticonvulsant activity in Kunming mouse assessed as MES-induced hind limb extension at 100 mg/kg, ip administered 0. 5 hrs before MES stimulation relative to control; format: functional
Mus musculus [26] = assay: Anticonvulsant activity in Kunming mouse assessed as MES-induced hind limb extension at 100 mg/kg, ip administered 0. 5 to 4 hrs before MES stimulation relative to control; format: functional
Mus musculus [27] = assay: Anticonvulsant activity in Kunming mouse assessed as MES-induced hind limb extension at 100 mg/kg, ip administered 3 hrs before MES stimulation; format: functional, organism-based
Mus musculus [28] = assay: Anticonvulsant activity in Kunming mouse assessed as reduction in ScPTZ-induced mortality rate at 300 mg/kg, ip administered 0.5 hrs before ScPTZ stimulation relative to control; format: functional; design: scale not given: the % may be the effect or the level left
Mus musculus [29] = assay: Anticonvulsant activity in Kunming mouse assessed as reduction in Sc3-MP-induced seizure at 300 mg/kg, ip administered 0.25 and 1 hrs before Sc3-MP stimulation relative to control; format: functional, organism-based
Mus musculus [30] = assay: Anticonvulsant activity in Kunming mouse assessed as reduction in Sc3-MP-induced seizure at 300 mg/kg, ip administered 0.5 hrs before Sc3-MP stimulation relative to control; format: functional; design: scale not given: the % may be the effect or the level left
Mus musculus [31] = assay: Anticonvulsant activity in Kunming mouse assessed as reduction in Sc3-MP-induced mortality rate at 300 mg/kg, ip administered 0.5 hrs before Sc3-MP stimulation relative to control; format: functional; design: scale not given: the % may be the effect or the level left
[32] = Drug metabolism in Sprague-Dawley rat assessed as retention time by HPLC/MS analysis; format: ADME

Compound | Activity (Mus musculus [1]) [%] | Activity (Mus musculus [2]) [%] | Activity (Mus musculus [3]) | Activity [4] | Activity (Mus musculus [6]) | Activity (Mus musculus [7]) [%] | Activity (Mus musculus [8]) | Activity (Mus musculus [10]) [%] | Activity (Mus musculus [11]) [%] | Activity (Mus musculus [12]) [%] | Activity (Mus musculus [13]) [%] | ED50 (Mus musculus [14]) | ED50 (Mus musculus [15]) | ED50 (Mus musculus [16]) | ED50 (Mus musculus [17]) | TD50 at 0.5 h [18] | selectivity ratio at 0.5 h [19] | selectivity ratio at 0.5 h [20] | selectivity ratio at 0.5 h [21] | selectivity ratio at 0.5 h [22] | also measured
COc1cc(OC)c(OC)cc1/C=C/COC(=O)/C=C/c1ccc(OC)c(OC)c1OC | 100 | 75 | Active | Non-Toxic | 50% | 50 | inactive | 100 | 100 | 25 | 100 | 33.4 mg/kg and 75.1 µmol/kg | 203 mg/kg and 456 µmol/kg | > 300 mg/kg and > 675 µmol/kg | 78.4 mg/kg and 176 µmol/kg | > 1000 mg/kg and > 2250 µmol/kg | > 29.9 | > 4.9 | 3.3 | > 12.8 | Activity (Mus musculus [5]): 50%; Activity (Mus musculus [9]): 75%; inhibition (Homo sapiens [23]): 7%; inhibition (Homo sapiens [24]): 8%; Activity (Mus musculus [25]): 100%; Activity (Mus musculus [26]): 25 - 100%
COc1cc(OC)c(OC)cc1/C=C/COC(=O)/C=C/c1ccccc1Cl | 100 | 50 | Active | Non-Toxic | 75% | 50 | inactive | 100 | 100 | 25 | 100 | 151 µmol/kg and 58.7 mg/kg | 150 mg/kg and 385 µmol/kg | 248 mg/kg and 639 µmol/kg | 101 mg/kg and 260 µmol/kg | > 2570 µmol/kg and > 1000 mg/kg | > 17 | > 6.7 | > 4 | > 9.9 | Activity (Mus musculus [27]): Active; Activity (Mus musculus [5]): 50%; Activity (Mus musculus [9]): 75%; Activity (Mus musculus [28]): 0%; Activity (Mus musculus [29]): Active; Activity (Mus musculus [30]): 50%; Activity (Mus musculus [31]): 0%; inhibition (Homo sapiens [23]): < 5%; inhibition (Homo sapiens [24]): < 9%; Activity (Mus musculus [26]): 25 - 100%
COc1cc(OC)c(OC)cc1/C=C/CO | – | – | Active | Non-Toxic | – | – | – | – | – | – | – | 277 µmol/kg and 62 mg/kg | – | – | – | 3070 µmol/kg and 689 mg/kg | 11.1 | – | – | – | Retention_time [32]: 67.5 min
COc1cccc(/C=C/C(=O)OC/C=C/c2cc(OC)c(OC)cc2OC)c1 | 100 | 75 | Active | Non-Toxic | inactive | 50 | inactive | 100 | 100 | 50 | 100 | 72.9 mg/kg and 190 µmol/kg | 247 mg/kg and 643 µmol/kg | 249 mg/kg and 647 µmol/kg | > 100 mg/kg and > 260 µmol/kg | > 1000 mg/kg and > 2600 µmol/kg | > 13.7 | > 4.1 | > 4 | > 8.9 | Activity (Mus musculus [28]): 0%; Activity (Mus musculus [31]): 25%; inhibition (Homo sapiens [23]): inactive; inhibition (Homo sapiens [24]): inactive; Activity (Mus musculus [26]): 25 - 100%
